Measurements from publication PMC9019904, “AD Informer Set: Chemical tools to facilitate Alzheimer's disease drug discovery” (Alzheimer's & Dementia : Translational Research & Clinical …, 2022).

How the values were obtained:
[1] = system: BV2 (mouse microglia) cell line; experiment: pHrodo-myelin phagocytosis/cell viability high content imaging assay: viability (cell count, nuclear area, nuclear intensity); conditions: for 1. Cell count (% control) / 2. Nuclear Area (% Control) / 3. Nuclear DNA Intensity (% control): 48 hours treatment
Protocol: (§1) All AD Informer Set compounds were tested in two immortalized microglial cell lines, murine (BV2), and human (HMC3), in a high‐content imaging assay in duplicate by the Chu lab. Experimental details and all data can be found as supporting information files.
(§2) The role of microglia in AD has been well documented and was thus chosen as a cell type in which to profile the AD Informer Set.[43], [44], [45] As an example, neuroinflammation, as detected by the presence of activated complement proteins, interleukins, cytokines, and chemokines in microglia and astrocytes, is increased early in AD and is considered pathogenic due to its chronic nature.[33], [34] Cytotoxic effects can be assessed by considering multiple parameters.
(§3) Microglial viability and phagocytosis studies: The pHrodo-myelin phagocytosis/cell viability assay, modified based on a published method, was run with immortalized BV2 (mouse microglia) and HMC3 (human microglia) cell lines in the Chu lab at IUSM. The 384-well plate high content analysis assay with BV2 and HMC3 microglial cell lines is used to quantify both phagocytosis and cell viability simultaneously. High content imaging is performed with the ArrayScan automatic imaging system and imaging analysis done with the software on the system. After allowing cells to adhere overnight, they are treated with compounds for total 48 hours including final 20 hours seeded with pHrodo-myelin (labeled phagocytosis ligand, purified […]
(§4) (approximately 22 hours after pHrodo-myelin addition). Three measurements are extracted from the assay: 1) phagocytosis signal by mean total phagocytosis spot intensity per cell, 2) total cell counts per well as the main measurement of cell viability, and 3) mean average nuclear intensity per cell as profiling of cell health since apoptotic cells showing nuclear intensity increase (early apoptosis) and decrease (later apoptosis), respectively. These measurements allow for evaluation of compound-induced phagocytosis (1) and cytotoxicity (2 and 3). Assays were carried out at a single concentration (10 μM). Idelalisib (10 μM) and cytochalasin-D (4 μM) were used as positive controls in the assay. All data, which was an average of 2 data points, was normalized to untreated wells and reported as % control, which is included in the Supporting Information both as a raw data file and summarized in the compound/gene-annotation file.

[2] = system: HMC3 (human microglia) cell line; experiment: as above; conditions: for 1. Cell count (% control) / 2. Nuclear Area (% Control) / 3. Nuclear DNA Intensity (% control): 48 hours treatment
Protocol: as §1, §2, §3, §4

[3] = system: BV2 (mouse microglia) cell line; experiment: pHrodo-myelin phagocytosis/cell viability high content imaging assay: phagocytosis signal; format: cell-based
Protocol: (§5) It is important to note that stressed cells, such as those that are dying, are prone to show an increase in phagocytosis. […] MerTK promotes phagocytosis and thus MerTK inhibition is proposed to lead to inhibition of phagocytosis.[47]
(§6) phagocytosis and cell viability simultaneously. High content imaging is performed with the
(§7) (approximately 22 hours after pHrodo-myelin addition). Three measurements are extracted
(§8) intensity increase (early apoptosis) and decrease (later apoptosis), respectively. These
and 3). […]

[4] = system: HMC3 (human microglia) cell line; experiment: as above; format: cell-based
Protocol: as §5, §6, §7, §8
and 3). […]

[5] = BV2 cells, 10 uM compound, 48 hours treatment, pHrodo-myelin final 20 hours
[6] = HMC3 cells, 10 uM compound, 48 hours treatment, pHrodo-myelin final 20 hours
[7] = BV2, compound 10 uM, pHrodo-myelin
[8] = HMC3, compound 10 uM, pHrodo-myelin

Row | Compound | 1. Cell count (% control) ([1]; BV2 cells, 10 uM compound) | 2. Nuclear Area (% Control) ([1]; BV2 cells, 10 uM compound) | 3. Nuclear DNA Intensity (% control) ([1]; BV2 cells, 10 uM compound) | 1. Cell count (% control) ([2]; HMC3 cells, 10 uM compound) | 2. Nuclear Area (% Control) ([2]; HMC3 cells, 10 uM compound) | 3. Nuclear DNA Intensity (% control) ([2]; HMC3 cells, 10 uM compound) | 4. Phagocytosis (% control) [3, 5] [% control] | 4. Phagocytosis (% control) [4, 6] [% control] | 1. Cell count (% control) ([1]; BV2, compound 10 uM) | 2. Nuclear Area (% Control) ([1]; BV2, compound 10 uM) | 3. Nuclear DNA Intensity (% control) ([1]; BV2, compound 10 uM) | 1. Cell count (% control) ([2]; HMC3, compound 10 uM) | 2. Nuclear Area (% Control) ([2]; HMC3, compound 10 uM) | 3. Nuclear DNA Intensity (% control) ([2]; HMC3, compound 10 uM) | 4. Phagocytosis (% control) [3, 7] [% control] | 4. Phagocytosis (% control) [4, 8] [% control] | Mouse microglial cytotoxicity at 10 μM (<70% control) ([1]; 10 μM, BV2) | Human microglial cytotoxicity at 10 μM (<70% control) ([2]; 10 μM, HMC3) | Stimulation of mouse microglial phagocytosis at 10 μM (>150% control) ([3]; 10 μM, BV2) | Inhibition of human microglial phagocytosis at 10 μM (<70% control) ([4]; 10 μM, HMC3)
1 | CC(C)[C@H](O)C(=O)N[C@@H](C)C(=O)N[C@@H]1C(=O)N(C)CCc2ccccc21 [UNC10303095A] | 134.6 | 102.1 | 104.4 | 156.2 | 97.1 | 97.3 | 150.0 | 70.8 | – | – | – | – | – | – | – | – | – | – | – | –
2 | Nc1ncnc2c1nc(Br)n2[C@@H]1O[C@@H]2COP(=O)([O-])O[C@H]2[C@H]1O.[Na+] [UNC10302698A] | – | – | – | – | – | – | – | – | 97.0 | 105.8 | 98.8 | 137.9 | 97.3 | 96.1 | 164.5 | 80.6 | – | – | – | –
3 | CCC(=C(c1ccc(O)cc1)c1ccc(OCCN(C)C)cc1)c1ccccc1 [UNC10302895A] | 114.3 | 103.3 | 103.4 | 134.2 | 100.6 | 93.3 | 182.9 | 89.5 | – | – | – | – | – | – | – | – | – | – | – | –
4 | COc1ccc(CC[C@@H](OC(=O)[C@@H]2CCCCN2C(=O)[C@H](c2cc(OC)c(OC)c(OC)c2)C2CCCCC2)c2cccc(OCC(=O)O)c2)cc1OC [UNC10302701A] | – | – | – | – | – | – | – | – | 117.8 | 104.1 | 103.5 | 116.9 | 101.8 | 97.5 | 156.6 | 71.9 | – | – | – | –
5 | CC(=O)c1nc([C@@H](O)[C@H](O)[C@H](O)CO)c[nH]1 [UNC10303188A] | – | – | – | – | – | – | – | – | 136.1 | 102.5 | 102.7 | 133.0 | 98.0 | 87.6 | 181.8 | 91.3 | – | – | – | –
6 | COc1cc([C@@H]2c3cc4c(cc3[C@H](O)[C@H]3COC(=O)[C@H]23)OCO4)cc(OC)c1OC [Podofilox] | – | – | – | – | – | – | – | – | – | – | – | – | – | – | – | – | Y (The compound was found to be cytotoxic (cell count threshold: <70% control) when murine immortalized microglial cells were dosed at 10 μM (Y: yes)) | Y (The compound was found to be cytotoxic (cell count threshold: <70% control) when human immortalized microglial cells were dosed at 10 μM (Y: yes)) | Y (The compound was found to stimulate phagocytosis (response threshold: >150% control) when murine immortalized microglial cells were dosed at 10 μM (Y: yes)) | Y (The compound was found to inhibit phagocytosis (response threshold: <70% control) when human immortalized microglial cells were dosed at 10 μM (Y: yes))
7 | CO[C@H]1C[C@@H]2CC[C@@H](C)[C@@](O)(O2)C(=O)C(=O)N2CCCC[C@H]2C(=O)O[C@H]([C@H](C)C[C@@H]2CC[C@@H](O)[C@H](OC)C2)CC(=O)[C@H](C)/C=C(\C)[C@@H](O)[C@@H](OC)C(=O)[C@H](C)C[C@H](C)/C=C/C=C/C=C/1C [UNC10302852A] | 54.7 | 106.2 | 98.8 | 103.0 | 85.8 | 119.9 | 309.6 | 64.8 | – | – | – | – | – | – | – | – | – | – | – | –
8 | Cl.NCCOCCOCCNC(=O)Cc1ccc(Nc2nc(NCc3ccc(F)cc3)nc(NCC3CCCCC3)n2)cc1 [UNC10302950A] | 46.4 | 117.0 | 104.0 | 97.2 | 95.7 | 118.1 | 232.8 | 36.3 | – | – | – | – | – | – | – | – | – | – | – | –
